Experiments:
Format in all cases: cell-based
[1] = molecular target: T1, signal peptidase IB (SpsB) (Staphylococcus aureus, UniProt P0A070); test: FRET substrate cleavage assay with SpsB (activation)
T1 sequence (P0A070 1-191): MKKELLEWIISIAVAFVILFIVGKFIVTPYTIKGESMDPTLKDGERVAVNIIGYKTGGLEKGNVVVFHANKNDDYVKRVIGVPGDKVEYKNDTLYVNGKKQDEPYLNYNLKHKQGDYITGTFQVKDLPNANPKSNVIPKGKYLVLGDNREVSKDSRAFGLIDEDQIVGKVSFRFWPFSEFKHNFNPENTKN

[2] = molecular target: signal peptidase IB (SpsB) (Staphylococcus aureus, UniProt P0A070, Q165A); test: enzyme turnover assay with SpsB mutant (activation retained)
[3] = molecular target: signal peptidase IB (SpsB) (Staphylococcus aureus, UniProt P0A070); test: FRET substrate cleavage assay with membrane-bound SpsB (activation); supported by competition of photoprobe labelling in cells and loss of activation in pocket mutants

SMILES	FRET substrate cleavage assay with SpsB (activation) [1]	enzyme turnover assay with SpsB mutant (activation retained) [2]	% [3]
NCc1ccc(-c2ccc(Br)cc2)o1 [D14]	Further structural derivatives (D10, D14, and D16) also showed SpsB activation in the FRET assay	–	–
N=C(N)NCc1ccc(-c2ccc(Br)cc2)o1 [L15]	–	while Q165A, a control mutation that does not affect binding, still showed activation	~ 150%
N=C(N)NCc1ccc(-c2ccc(Br)cc2)s1 [D10]	Further structural derivatives (D10, D14, and D16) also showed SpsB activation in the FRET assay	–	–
Nc1nccn1Cc1ccc(-c2ccc(Br)cc2)o1 [D16]	Further structural derivatives (D10, D14, and D16) also showed SpsB activation in the FRET assay	–	–

Reference: paper PMC11350587, “Screening Privileged Alkyl Guanidinium Motifs under Host-Mimicking Conditions Reveals a Novel Antibiotic with an Unconventional Mode of Action” (JACS Au, 2024)
